Test results as given in US3985758A, “1,4-Dihydropyridine derivatives” (Yamanouchi Pharmaceutical Co., Ltd., priority 1973, dated 1976).
In brackets after ≈: the same amount, converted by molar mass. Counter-ions that a name gives are not always drawn. Like-named read-outs stand apart in the source and are kept apart here.

What was measured:
in vivo [1] = details: mouse, in vivo, iv
Method: (§1) LD50 was determined by using mice.
(§2) 2. Acute toxicity in mice
(§3) Male ICR weighing 25 to 32 g were used. The test compounds were injected into tail vein and LD 50 values were determined.

[2] = tested on: vertebral and femoral blood flow; assay: Vertebral and femoral blood flow in anesthetized dogs; format: in vivo, mongrel dog; details: 0.01 mg/kg i.v. (0.01 or 0.03 mg/kg); for Blood pressure change (Δ mmHg): femoral artery; for Separation ratio (percent increase of vertebral blood flow / that of femoral blood flow): significance vs SKF 24260
Method: Vertebral and femoral blood flow in anesthetized dogs.
Mongrel dogs of both sexes weighing from 12 to 27 kg were anesthetized with sodium pentobarbitol (30 mg/kg i.v.). In all experiments, trachea was cannulated and the animals were artificially ventilated with room air. Blood pressure in cannulated femoral artery was measured by means of a pressure transducer (Nihon Kohden, MPU 0.5). Vertebral and femoral blood flow were measured by a noncannulating electromagnetic flowmeter (Nihon Kohden, MF-25) positioned around the vessels. Recordings were made on an ink-writing polygraph (Nihon Kohden, RM-150 or RM-85). The test compounds were injected at a dose of 0.01 mg/kg into femoral vein.

mice = assay: in vivo; details: i.v.; mice
Method: as §1, §2, §3

femoral artery = assay: Direct vasodilating effect on femoral artery, constant volume perfusion; format: in vivo, mongrel dog; details: intra-arterial; ±SE; maximum response to papaverine 3000 μg i.a. = 100%
Text: For the analysis of the selective effect on vasculature by the drugs, direct effect on cerebral (vertebral artery) and peripheral (femoral artery) vascular bed were studied by the method of the constant volume perfusion.
(§4) Heparin (1000 μ/Kg, i.v.) was used as an anticoagulant. The methods for perfusion of each artery were as following: 1) For the vertebral artery, the arterial blood led from the left common carotid artery was collected by the tygon tubing and perfused by the Sigma-motor pump (Mippleport N.Y. T-8) into the right vertebral artery. 2) For the femoral artery, the arterial blood led from the proximal femoral artery was perfused by the Sigma-motor pump into the distal femoral artery. […] All drugs were given into a rubber tube connected close to the each arterial cannula by a microinjector (Jintan Terumo, NSN-100).

[3] = Solubility in water at 25° C; format: physicochemical
vertebral artery = assay: Direct vasodilating effect on vertebral artery, constant volume perfusion; format: in vivo, mongrel dog; details: intra-arterial; for Selectivity ratio (ED50 in femoral artery/ED50 in vertebral artery): anesthetized dogs; for Vasodilation ED50, vertebral artery: ±SE, maximum response to papaverine 3000 μg i.a. = 100%
Text: as §4

in vivo [4] = details: dog, iv
guinea-pig ileum = assay: Spasmolytic activity in isolated guinea-pig ileum (Magnus apparatus); details: Cavia porcellus, ±S.E.
Method: Methods: Isolated guinea-pig ileum was suspended in Tyrodes solution by use of Magnus apparatus and the movements of the muscle were recorded in a kymograph by an isotonic lever.

[5] = cited from earlier work
[6] = cited from earlier work; remark: listed apart in the source
[7] = compounds of the present invention, 25° C
[8] = compounds of the present invention, 25° C, at the given pH, read-out: Solubility
[9] = read-out: Spasmolytic activity, 50% inhibition of contractile response, Acetylchloline 10^-7 g/ml
[10] = read-out: Spasmolytic activity, 50% inhibition of contractile response, BaCl2 2×10^-4 g/ml
[11] = read-out: Spasmolytic activity, 50% inhibition of contractile response, Histamine 10^-7 g/ml
[12] = known compounds, 25° C, at the given pH, read-out: Solubility
[13] = known compounds, pH 4.00, 25° C, read-out: Solubility at pH 4.00

For `COC(=O)C1=C(C)NC(C)=C(C(=O)OCCN(C)Cc2ccccc2)C1c1ccccc1[N+](=O)[O-]` (stereo not drawn) [Example 36, 2,6-dimethyl-4-(2'-nitrophenyl)-1,4-dihydropyridine-3.5-dicarboxilic acid 3-methyl ester 5-β-(N-benzyl-N-methylamino) ethyl ester hydrochloride], the LD50 (in vivo [1]) was 14 mg/kg, the “Femoral blood flow (FBF %)” value [2] was 83 ± 14.1% and the “Vertebral blood flow (VBF Δ %)” value [2] was 167 ± 31.7 Δ %. The “Blood pressure change (Δ mmHg)” value [2] was -26 ± 5.0 Δ mmHg and the “Separation ratio (percent increase of vertebral blood flow / that of femoral blood flow)” value [2] was 2.21 ± 0.56.

For `COC(=O)C1=C(C)NC(C)=C(C(=O)OCCN(C)Cc2ccccc2)C1c1cccc([N+](=O)[O-])c1` (stereo not drawn) [Example 2, 2,6-dimethyl-4-(3'-nitrophenyl)-1,4-dihydropyridine-3,5-dicarboxylic acid 3-β-(N-benzyl-N-methylamino)ethyl ester 5-methyl ester hydrochloride], the “Heart rate (Δbeats/min.±SE)” value (anesthetized dogs; 0.0003 mg/Kg i.v.) was 4±1.3 Δbeats/min, the “Mean blood pressure (ΔmmHg±SE)” value (anesthetized dogs; 0.0003 mg/Kg i.v.) was -1±0.6 ΔmmHg and the “Vertebral blood flow (Δ%±SE)” value (anesthetized dogs; 0.0003 mg/Kg i.v.) was 27±4.4 Δ%. For the same compound, the “Heart rate (Δbeats/min.±SE)” value (anesthetized dogs; 0.001 mg/Kg i.v.) was 12±2.2 Δbeats/min, the “Mean blood pressure (ΔmmHg±SE)” value (anesthetized dogs; 0.001 mg/Kg i.v.) was -7±1.5 ΔmmHg and the “Vertebral blood flow (Δ%±SE)” value (anesthetized dogs; 0.001 mg/Kg i.v.) was 61±9.5 Δ%. The “Heart rate (Δbeats/min.±SE)” value (anesthetized dogs; 0.003 mg/Kg i.v.) was 18±2.0 Δbeats/min, the “Mean blood pressure (ΔmmHg±SE)” value (anesthetized dogs; 0.003 mg/Kg i.v.) was -14±2.2 ΔmmHg and the “Vertebral blood flow (Δ%±SE)” value (anesthetized dogs; 0.003 mg/Kg i.v.) was 132±13.8 Δ%. The “Heart rate (Δbeats/min.±SE)” value (anesthetized dogs; 0.01 mg/Kg i.v.) was 25±5.3 Δbeats/min, the “Mean blood pressure (ΔmmHg±SE)” value (anesthetized dogs; 0.01 mg/Kg i.v.) was -29±3.6 ΔmmHg and the “Vertebral blood flow (Δ%±SE)” value (anesthetized dogs; 0.01 mg/Kg i.v.) was 200±27.3 Δ%. For the same compound, the LD50 (in vivo [1]) was 20.7 mg/kg, the LD50 (mice) was 20.7 mg/kg and the “Vasodilation ED50, femoral artery” value (femoral artery) was 0.86 ± 0.11 µg. For the same compound, the “Femoral blood flow (FBF %)” value [2] was 51 ± 5.8%, the “Vertebral blood flow (VBF Δ %)” value [2] was 200 ± 27.3 Δ % and the “Blood pressure change (Δ mmHg)” value [2] was -29 ± 3.6 Δ mmHg. The “Separation ratio (percent increase of vertebral blood flow / that of femoral blood flow)” value [2] was 4.19 ± 0.69, the “pH (of solubility determination)” value [3, 7] was 3.92 and the solubility [3, 8] was 4900 µg/mL. For the same compound, the “Selectivity ratio (ED50 in femoral artery/ED50 in vertebral artery)” value (vertebral artery) was 1.30, the “Vasodilation ED50, vertebral artery” value (vertebral artery) was 0.66 ± 0.20 µg and the LD50 (in vivo [4]) was 6.1 mg/kg. For the same compound, the IC50 (guinea-pig ileum; [9]) was 0.0052 µg/mL, the IC50 (guinea-pig ileum; [10]) was 0.0019 µg/mL and the IC50 (guinea-pig ileum; [11]) was 0.0018 µg/mL.

With `COC(=O)C1=C(C)NC(C)=C(C(=O)OC)C1c1ccccc1[N+](=O)[O-]` [Nifedipine, 4-(2'-nitrophenyl)-2,6-dimethyl-1,4-dihydropyridine-3,5-dicarboxylic acid dimethyl ester] the “Heart rate (Δbeats/min.±SE)” value (anesthetized dogs; 0.001 mg/Kg i.v.) was 10±3.5 Δbeats/min, the “Mean blood pressure (ΔmmHg±SE)” value (anesthetized dogs; 0.001 mg/Kg i.v.) was -10±1.6 ΔmmHg and the “Vertebral blood flow (Δ%±SE)” value (anesthetized dogs; 0.001 mg/Kg i.v.) was 47±13.5 Δ%. The “Heart rate (Δbeats/min.±SE)” value (anesthetized dogs; 0.003 mg/Kg i.v.) was 18±3.2 Δbeats/min, the “Mean blood pressure (ΔmmHg±SE)” value (anesthetized dogs; 0.003 mg/Kg i.v.) was -24±5.9 ΔmmHg and the “Vertebral blood flow (Δ%±SE)” value (anesthetized dogs; 0.003 mg/Kg i.v.) was 104±25.8 Δ%. For the same compound, the “Heart rate (Δbeats/min.±SE)” value (anesthetized dogs; 0.01 mg/Kg i.v.) was 17±4.0 Δbeats/min, the “Mean blood pressure (ΔmmHg±SE)” value (anesthetized dogs; 0.01 mg/Kg i.v.) was -39±3.2 ΔmmHg and the “Vertebral blood flow (Δ%±SE)” value (anesthetized dogs; 0.01 mg/Kg i.v.) was 135±28.8 Δ%. For the same compound, the “Vasodilation ED50, femoral artery” value (femoral artery) was 0.37 ± 0.11 µg, the “Femoral blood flow (FBF %)” value [2] was 109 ± 34.1% and the “Vertebral blood flow (VBF Δ %)” value [2] was 135 ± 28.8 Δ %. For the same compound, the “Blood pressure change (Δ mmHg)” value [2] was -39 ± 3.2 Δ mmHg, the “Vasodilation ED50, vertebral artery” value (vertebral artery) was 0.74 ± 0.15 µg and the “Coronary vasodilator activity and spasmolytic activity” value ([5]; Naturwissenschaften 58, (11)578(1971)) was “much excellent coronary vasodilator activity and spasmolytic activity”.

In the case of `COC(=O)C1=C(C)NC(C)=C(C(=O)OCCN(C)Cc2ccccc2)C1c1ccccc1C(F)(F)F` (stereo not drawn) [Example 24, 2,6-dimethyl-4-(o-trifluoromethyl-phenyl)-1,4-dihydropyridine-3,5-dicarboxylic acid 3-β-(N-benzyl-N-methylamino)ethyl ester 5-methyl ester hydrochloride], the LD50 (in vivo [1]) is reported as 23.7 mg/kg, the “Femoral blood flow (FBF %)” value [2] is reported as 67 ± 10.5% and the “Vertebral blood flow (VBF Δ %)” value [2] is reported as 119 ± 20.4 Δ %. For the same compound, the “Blood pressure change (Δ mmHg)” value [2] was -28 ± 4.9 Δ mmHg, the “Separation ratio (percent increase of vertebral blood flow / that of femoral blood flow)” value [2] was 2.04 ± 0.53 and the “pH (of solubility determination)” value [3, 7] was 3.91. It also gave a solubility [3, 8] of 2300 µg/mL.

In the case of `CCOC(=O)C1=C(C)NC(C)=C(C(=O)OCCN(C)Cc2ccccc2)C1c1cccc([N+](=O)[O-])c1` (stereo not drawn) [R5=C2H5O, A=CH2CH2, R3=drawing 10, R4=CH3, 2,6-Dimethyl-4-(3'-nitrophenyl)-1,4-dihydropyridine-3,5-dicarboxylic acid 3-β-(N-benzyl-N-methylamino)ethyl ester 5-ethyl ester], the LD50 (in vivo [1]) is reported as 15 mg/kg.

In the case of `CCN(CCOC(=O)C1=C(C)NC(C)=C(C(=O)OC(C)C)C1c1cccc([N+](=O)[O-])c1)Cc1ccccc1` (stereo not drawn) [R5=drawing 11, A=CH2CH2, R3=drawing 10, R4=C2H5, 2,6-Dimethyl-4-(3'-nitrophenyl)-1,4-dihydropyridine-3,5-dicarboxylic acid 3-β-(N-benzyl-N-ethylamino)ethyl ester 5-isopropyl ester], the LD50 (in vivo [1]) is reported as 12 mg/kg.

In the case of `COc1ccc(Cc2nccc3cc(OC)c(OC)cc23)cc1OC` [Papaverine], the “Heart rate (Δbeats/min.±SE)” value (anesthetized dogs; 0.1 mg/Kg i.v.) is reported as 8±1.5 Δbeats/min, the “Mean blood pressure (ΔmmHg±SE)” value (anesthetized dogs; 0.1 mg/Kg i.v.) is reported as -9±1.1 ΔmmHg and the “Vertebral blood flow (Δ%±SE)” value (anesthetized dogs; 0.1 mg/Kg i.v.) is reported as 22±3.4 Δ%. The “Heart rate (Δbeats/min.±SE)” value (anesthetized dogs; 0.3 mg/Kg i.v.) was 22±3.5 Δbeats/min, the “Mean blood pressure (ΔmmHg±SE)” value (anesthetized dogs; 0.3 mg/Kg i.v.) was -21±2.8 ΔmmHg and the “Vertebral blood flow (Δ%±SE)” value (anesthetized dogs; 0.3 mg/Kg i.v.) was 67±7.1 Δ%. For the same compound, the “Heart rate (Δbeats/min.±SE)” value (anesthetized dogs; 1.0 mg/Kg i.v.) was 44±4.8 Δbeats/min, the “Mean blood pressure (ΔmmHg±SE)” value (anesthetized dogs; 1.0 mg/Kg i.v.) was -32±3.5 ΔmmHg and the “Vertebral blood flow (Δ%±SE)” value (anesthetized dogs; 1.0 mg/Kg i.v.) was 124±13.8 Δ%. For the same compound, the “Vasodilation ED50, femoral artery” value (femoral artery) was 48.8 ± 3.73 µg, the “Selectivity ratio (ED50 in femoral artery/ED50 in vertebral artery)” value (vertebral artery) was 0.67 and the “Vasodilation ED50, vertebral artery” value (vertebral artery) was 72.8 ± 8.71 µg. It also gave an IC50 (guinea-pig ileum; [9]) of 11 µg/mL (≈ 32.4 µM), an IC50 (guinea-pig ileum; [10]) of 7.2 µg/mL (≈ 21.2 µM) and an IC50 (guinea-pig ileum; [11]) of 7 µg/mL (≈ 20.6 µM).

With `CCOC(=O)C1=C(C)NC(C)=C(C(=O)OCCN(C)Cc2ccc(Cl)cc2)C1c1cccc([N+](=O)[O-])c1` (stereo not drawn) [R5=C2H5O, A=CH2CH2, R3=drawing 13, R4=CH3] the LD50 (in vivo [1]) was 12 mg/kg.

For `COC(=O)C1=C(C)NC(C)=C(C(=O)OC)C1c1ccccc1C#N` [reference compound], the LD50 (in vivo [1]) was 7.4 mg/kg, the “Femoral blood flow (FBF %)” value [2] was 109 ± 28.0% and the “Vertebral blood flow (VBF Δ %)” value [2] was 97 ± 16.0 Δ %. The “Blood pressure change (Δ mmHg)” value [2] was -38 ± 6.0 Δ mmHg, the “Separation ratio (percent increase of vertebral blood flow / that of femoral blood flow)” value [2] was 1.20 ± 0.27 and the “pH (of solubility determination)” value ([3]; known compounds, 25° C) was 5.80. For the same compound, the solubility [3, 12] was 10 µg/mL (≈ 30.6 µM) and the solubility [3, 13] was 1 µg/mL (≈ 3.06 µM).

For `CCOC(=O)C1=C(C)NC(C)=C(C(=O)OCC)C1c1ccccc1C(F)(F)F` [SKF 24260, 3,5-dicarbethoxy-1,4-dihydro-2,6-dimethyl-4-(2-trifluoromethylphenyl) pyridine, reference compound], the LD50 (in vivo [1]) was 0.8 mg/kg, the “Femoral blood flow (FBF %)” value [2] was 165 ± 40% and the “Vertebral blood flow (VBF Δ %)” value [2] was 144 ± 17.7 Δ %. For the same compound, the “Blood pressure change (Δ mmHg)” value [2] was -44 ± 4.8 Δ mmHg, the “Separation ratio (percent increase of vertebral blood flow / that of femoral blood flow)” value [2] was 0.93 ± 0.11 and the “pH (of solubility determination)” value ([3]; known compounds, 25° C) was 5.40. For the same compound, the solubility [3, 12] was 10 µg/mL (≈ 25.2 µM), the solubility [3, 13] was 10 µg/mL (≈ 25.2 µM) and the “Water-solubility (in words)” value [6] was “very poorly water-soluble”. For the same compound, the Hypotensive activity ([5]; U.S. Pat. No. 3,511,837) was “shows hypotensive activity”.
